Experimental data as given in patent publication US11491157B2, “Cycloalkyl substituted pyrazolopyrimidines having activity against RSV” (priority 2018, dated 2022).
Counter-ions that a name gives are not always drawn.

Columns and labels:
rgRSV224 virus = assay: Antiviral activity: rgRSV224 (GFP) replication in HeLa cells; conditions: human respiratory syncytial virus, 72 h, read-out: RSV HELA EC50
Method: (§1) Black 384-well clear-bottom microtiter plates (Corning, Amsterdam, The Netherlands) were filled via acoustic drop ejection using the echo liquid handler (Labcyte, Sunnyvale, Calif.). 200 nL of compound stock solutions (100% DMSO) were transferred to the assay plates. 9 serial 4-fold dilutions of compound were made, creating per quadrant the same compound concentration. The assay was initiated by adding 10 μL of culture medium to each well (RPMI medium without phenol red, 10% FBS-heat inactivated, 0.04% gentamycin (50 mg/mL). All addition steps are done by using a multidrop dispenser (Thermo Scientific, Erembodegem, Belgium). Next, rgRSV224 virus (MOI=1) diluted in culture medium was added to the plates. rgRSV224 virus is an engineered virus that includes an additional GFP gene (Hallak L K, Spillmann D, Collins P L, Peeples M E. Glycosaminoglycan sulfation requirements for respiratory syncytial virus infection; Journal of virology (2000), 74(22), 10508-13) and was in-licensed from the NIH (Bethesda, Md., USA). Finally, 20 μL of a HeLa cell suspension (3,000 cells/well) were plated. Medium, virus- and mock-infected controls were included in each test. The wells contain 0.05% DMSO per volume. Cells were incubated at 37° C. in a 5% CO2 atmosphere. Three days post-virus exposure, viral replication was quantified by measuring GFP expression in the cells by an in house developed MSM laser microscope (Tibotec, Beerse, Belgium). The EC50 was defined as the 50% inhibitory concentration for GFP expression. In parallel, compounds were incubated for three days in a set of white 384-well microtiter plates (Corning) and the cytotoxicity of compounds in HeLa cells was determined by measuring the ATP content of the cells using the ATPlite kit (Perkin Elmer, Zaventem, Belgium) according to the manufacturer's instructions. The CC50 was defined as the 50% concentration for cytotoxicity.

in vitro = conditions: human
Method: as §1

Compound	EC50 (rgRSV224 virus) [µM]	melting point [°C]	CC50 at 3 days (in vitro) [µM]
C[C@@H]1c2cc(F)sc2CCN1C(=O)c1cc(C2CC2)n2nc(-c3ccc([C@H]4C[C@@H]4C(N)=O)cc3F)cc2n1 (relative stereo) [Compound 11, (1S,2S)-2-(4-{7-Cyclopropyl-5-[(4*R)-2-fluoro-4-methyl-4,5,6,7-tetrahydro-thieno[3,2-c]pyridine-5-carbonyl]pyrazolo[1,5-a]pyrimidin-2-yl}-3-fluorophenyl)cyclopropane-1-carboxamide]	0.044	300.14	–
C[C@@H]1c2ccccc2CCN1C(=O)c1cc(-c2ccccc2)n2nc(-c3ccc([C@@H]4C[C@H]4C(=O)NS(C)(=O)=O)cc3F)cc2n1 (single isomer, unassigned) (as salt: salt) [Compound 32, (1*R,2*R)-2-(3-Fluoro-4-{5-[(1R)-1-methyl-1,2,3,4-tetrahydroisoquinoline-2-carbonyl]-7-phenylpyrazolo[1,5-a]pyrimidin-2-yl}phenyl)-N-methanesulfonyl-cyclopropane-1-carboxamide; propan-2-amine salt]	–	186.79	–
C[C@@H]1c2ccsc2CCN1C(=O)c1cc(C2CC2)n2nc(-c3ccc([C@H]4C[C@@H]4C(N)=O)cc3F)cc2n1 (single isomer, unassigned) [Compound 10, (1S,2S)-2-(4-{7-Cyclopropyl-5-[(4*R)-4-methyl-4,5,6,7-tetrahydro-thieno[3,2-c]pyridine-5-carbonyl]pyrazolo[1,5-a]pyrimidin-2-yl}-3-fluorophenyl)cyclopropane-1-carboxamide]	0.014	302.9	> 25
C[C@@H]1c2ccsc2CCN1C(=O)c1cc(C2CC2)n2nc(-c3ccc([C@H]4C[C@@H]4C(=O)NS(C)(=O)=O)cc3F)cc2n1 (single isomer, unassigned) [Compound 28, (1S,2S)-2-(4-{7-Cyclopropyl-5-[(4*R)-4-methyl-4,5,6,7-tetrahydro-thieno[3,2-c]pyridine-5-carbonyl]pyrazolo[1,5-a]pyrimidin-2-yl}-3-fluorophenyl)-N-methanesulfonyl-cyclopropane-1-carboxamide]	0.037	286.12	53.4
C[C@@H]1c2ccccc2CCN1C(=O)c1cc(C2CC2)n2nc(-c3ccc([C@H]4C[C@@H]4c4nnn[nH]4)cc3F)cc2n1 [Compound 4, (1R)-2-(7-Cyclopropyl-2-{2-fluoro-4-[(1S,2S)-2-(1H-1,2,3,4-tetrazol-5-yl)cyclopropyl]phenyl}pyrazolo[1,5-a]pyrimidine-5-carbonyl)-1-methyl-1,2,3,4-tetrahydroisoquinoline]	0.12	254.07	44
C[C@@H]1c2ccccc2CCN1C(=O)c1cc(C2CC2)n2nc(-c3ccc([C@H]4C[C@@H]4C(N)=O)cc3F)cc2n1 [Compound 7, (1S,2S)-2-(4-{7-Cyclopropyl-5-[(1R)-1-methyl-1,2,3,4-tetrahydroisoquinoline-2-carbonyl]pyrazolo[1,5-a]pyrimidin-2-yl}-3-fluorophenyl)cyclopropane-1-carboxamide]	0.03	280.69	> 100
CNC(=O)[C@H]1C[C@@H]1c1ccc(-c2cc3nc(C(=O)N4CCc5ccccc5[C@H]4C)cc(C4CC4)n3n2)c(F)c1 [Compound 12, (1S,2S)-2-(4-{7-Cyclopropyl-5-[(1R)-1-methyl-1,2,3,4-tetrahydroisoquinoline-2-carbonyl]pyrazolo[1,5-a]pyrimidin-2-yl}-3-fluorophenyl)-N-methylcyclopropane-1-carboxamide]	0.024	258.18	> 100
CCCNC(=O)[C@H]1C[C@@H]1c1ccc(-c2cc3nc(C(=O)N4CCc5ccccc5[C@H]4C)cc(C4CC4)n3n2)c(F)c1 [Compound 15, (1S,2S)-2-(4-{7-Cyclopropyl-5-[(1R)-1-methyl-1,2,3,4-tetrahydroisoquinoline-2-carbonyl]pyrazolo[1,5-a]pyrimidin-2-yl}-3-fluorophenyl)-N-propylcyclopropane-1-carboxamide]	0.408	238.1	> 100
C=CCNC(=O)[C@H]1C[C@@H]1c1ccc(-c2cc3nc(C(=O)N4CCc5ccccc5[C@H]4C)cc(C4CC4)n3n2)c(F)c1 [Compound 16, (1S,2S)-2-(4-{7-Cyclopropyl-5-[(1R)-1-methyl-1,2,3,4-tetrahydroisoquinoline-2-carbonyl]pyrazolo[1,5-a]pyrimidin-2-yl}-3-fluorophenyl)-N-(prop-2-en-1-yl)cyclopropane-1-carboxamide]	0.263	240.35	> 100
C[C@@H]1c2ccccc2CCN1C(=O)c1cc(C2CC2)n2nc(-c3ccc([C@H]4C[C@@H]4C(=O)NCCC#N)cc3F)cc2n1 [Compound 18, (1S,2S)—N-(2-Cyanoethyl)-2-(4-{7-cyclopropyl-5-[(1R)-1-methyl-1,2,3,4-tetrahydro-isoquinoline-2-carbonyl]pyrazolo[1,5-a]pyrimidin-2-yl}-3-fluorophenyl)cyclopropane-1-carboxamide]	0.076	212.72	> 100
C[C@@H]1c2ccccc2CCN1C(=O)c1cc(C2CC2)n2nc(-c3ccc([C@H]4C[C@@H]4C(=O)NC4COC4)cc3F)cc2n1 [Compound 19, (1S,2S)-2-(4-{7-Cyclopropyl-5-[(1R)-1-methyl-1,2,3,4-tetrahydroisoquinoline-2-carbonyl]-pyrazolo[1,5-a]pyrimidin-2-yl}-3-fluorophenyl)-N-(oxetan-3-yl)cyclopropane-1-carboxamide]	0.095	248.97	> 100
C[C@@H]1c2ccccc2CCN1C(=O)c1cc(C2CC2)n2nc(-c3ccc([C@H]4C[C@@H]4C(=O)NS(C)(=O)=O)cc3F)cc2n1 [Compound 24, (1S,2S)-2-(4-{7-Cyclopropyl-5-[(1R)-1-methyl-1,2,3,4-tetrahydroisoquinoline-2-carbonyl]pyrazolo[1,5-a]pyrimidin-2-yl}-3-fluorophenyl)-N-methanesulfonyl-cyclopropane-1-carboxamide]	0.02	166.75	44.9
CCS(=O)(=O)NC(=O)[C@H]1C[C@@H]1c1ccc(-c2cc3nc(C(=O)N4CCc5ccccc5[C@H]4C)cc(C4CC4)n3n2)c(F)c1 [Compound 25, (1S,2S)-2-(4-{7-Cyclopropyl-5-[(1R)-1-methyl-1,2,3,4-tetrahydroisoquinoline-2-carbonyl]pyrazolo[1,5-a]pyrimidin-2-yl}-3-fluorophenyl)-N-(ethanesulfonyl)-cyclopropane-1-carboxamide]	0.034	171.93	51.9
CC(C)CS(=O)(=O)NC(=O)[C@H]1C[C@@H]1c1ccc(-c2cc3nc(C(=O)N4CCc5ccccc5[C@H]4C)cc(C4CC4)n3n2)c(F)c1 [Compound 26, (1S,2S)-2-(4-{7-Cyclopropyl-5-[(1R)-1-methyl-1,2,3,4-tetrahydroisoquinoline-2-carbonyl]pyrazolo[1,5-a]pyrimidin-2-yl}-3-fluorophenyl)-N-(2-methylpropanesulfonyl)-cyclopropane-1-carboxamide]	0.138	160.53	52.1
C[C@@H]1c2ccccc2CCN1C(=O)c1cc(C2CC2)n2nc(-c3ccc([C@H]4C[C@@H]4O)cc3F)cc2n1 [Compound 38, (1S,2R)-2-(4-{7-Cyclopropyl-5-[(1R)-1-methyl-1,2,3,4-tetrahydroisoquinoline-2-carbonyl]pyrazolo[1,5-a]pyrimidin-2-yl}-3-fluorophenyl)cyclopropan-1-ol]	0.159	–	50.4
C[C@@H]1c2ccccc2CCN1C(=O)c1cc(C2CC2)n2nc(-c3ccc([C@H]4C[C@H](CO)C4)cc3F)cc2n1 [Compound 41, [trans-3-(4-{7-Cyclopropyl-5-[(1R)-1-methyl-1,2,3,4-tetrahydroisoquinoline-2-carbonyl]pyrazolo[1,5-a]pyrimidin-2-yl}-3-fluorophenyl)cyclobutyl]methanol]	0.152	–	49.8
C[C@@H]1c2ccccc2CCN1C(=O)c1cc(C2CC2)n2nc(-c3ccc([C@H]4C[C@H](COC(N)=O)C4)cc3F)cc2n1 [Compound 43, [trans-3-(4-{7-Cyclopropyl-5-[(1R)-1-methyl-1,2,3,4-tetrahydroisoquinoline-2-carbonyl]pyrazolo[1,5-a]pyrimidin-2-yl}-3-fluorophenyl)cyclobutyl]methyl carbamate]	0.307	–	> 100
C[C@@H]1c2ccccc2CCN1C(=O)c1cc(C2CC2)n2nc(-c3ccc([C@H]4C[C@H](CC(N)=O)C4)cc3F)cc2n1 [Compound 45, 2-[trans-3-(4-{7-Cyclopropyl-5-[(1R)-1-methyl-1,2,3,4-tetrahydroisoquinoline-2-carbonyl]pyrazolo[1,5-a]pyrimidin-2-yl}-3-fluorophenyl)cyclobutyl]acetamide]	0.146	–	29.5
C[C@@H]1c2ccccc2CCN1C(=O)c1cc(C2CC2)n2nc(-c3ccc([C@H]4C[C@@H](CC(N)=O)C4)cc3F)cc2n1 [Compound 46, 2-[cis-3-(4-{7-Cyclopropyl-5-[(1R)-1-methyl-1,2,3,4-tetrahydroisoquinoline-2-carbonyl]pyrazolo[1,5-a]pyrimidin-2-yl}-3-fluorophenyl)cyclobutyl]acetamide]	0.145	–	30.4
CNC(=O)C[C@H]1C[C@H](c2ccc(-c3cc4nc(C(=O)N5CCc6ccccc6[C@H]5C)cc(C5CC5)n4n3)c(F)c2)C1 [Compound 47, N-methyl-2-[trans-3-(4-{7-cyclopropyl-5-[(1R)-1-methyl-1,2,3,4-tetrahydroisoquinoline-2-carbonyl]pyrazolo[1,5-a]pyrimidin-2-yl}-3-fluorophenyl)cyclobutyl]acetamide]	0.148	–	25.8
